Structures are written as SMILES.

Drawing on patent US20070208040A1, “A2A ADENOSINE RECEPTOR ANTAGONISTS” (priority 2006, published 2007), this text covers Ki for 30 compounds.

In this assay the target is A2A adenosine receptor (UniProt P29274). Description: A2A radioligand binding assay (displacement of 3H-MSX-2). Also on record: species or system human. The conditions noted are these: displacement of 2 nM 3H-MSX-2 from 15 ug A2A membrane, 23° C., 2 hours. The text has this: A tritiated adenosine A2A antagonist, 3-(3-hydroxypropyl)-7-methyl-8-(m-methoxystyryl)-1-propargylxanthine, (3H-MSX-2, specific activity: 80 Ci/mmol), was purchased from American Radiolabeled Chemicals, Inc (St. Louis, Mo.). A tritiated adenosine A1 antagonist, 1,3-Dipropyl-8-cyclopentylxanthine ([^3H]DPCPX, specific activity: 120 Ci/mmol) was purchased from Perkin Elmer (Boston, Mass.). A tritiated adenosine A2a antagonist, 4-(2-[7-amino-2-(2-furyl)[1,2,4]triazolo[2,3-a][1,3,5]triazin-5-ylamino]ethyl)phenol ([^3H]ZM241385 specific activity: 27.4 Ci/mmol) was purchased from American Radiolabeled Chemicals, Inc (St. Louis, Mo.). Adenosine Deaminase (ADA) was purchased from Roche Molecular Biochemicals (Nutley, N.J.). GTP was purchased from Sigma. Concentrated stock solution (10 mM) of compounds was dissolved in dimethylsulfoxide (DMSO), stored at −20° C., and diluted in Tris-EDTA buffer (50 mM Tris and 1 mM EDTA, 10 mM MgCl2, pH 7.4) for use in experiments. The final content of dimethylsulfoxide in Tris-EDTA buffer during experiments was not more than 1%. Male Sprague Dawley rats, weighted 250-400 g, 8-10 weeks old, were purchased from Charles River Labs (Wilmington, Mass.).
HEK293 (Human Embryonic Kidney 293) cells stably expressing human A2A adenosine receptor or human A2B adenosine receptor were maintained in DMEM supplemented with 10% fetal bovine serum, 2 mM L-glutamine, 100 IU/ml penicillin, 50 μg/ml streptomycin and 2 μg/ml puromycin. CHO (Chinese Hamster Ovary) cells stably expressing human A1 adenosine receptor or human A3 adenosine receptor were maintained in F12K medium supplemented with 10% fetal bovine serum, 2 mM L-glutamine, 100 IU penicillin, 50 μg streptomycin and 8 μg/ml puromycin. PC12 (rat pheochromocytoma) cells were cultured in F12K medium supplemented with 10% horse serum and 2.5% fetal bovine serum, 2 mM L-glutamine, 100 IU/ml penicillin, and 50 μg/ml streptomycin. All cells were maintained at 37° C. in a humidified 5% CO2/95% air incubator and recultivated 2 times per week.
Cultured cells in 150 mm^2 dishes were washed once with PBS, detached by scrapping, collected with buffer A (10 mM HEPES, 10 mM EDTA, pH 7.4) containing protease inhibitor cocktail. Cells were then homogenized by a handheld homogenizer at a speed of 4.5 for 1 min. The homogenate was centrifuged by a Beckman ultracentrifuge at a speed of 29,000 × g for 15 min. The pellets were resuspended in buffer HE (10 mM HEPES, 1 mM EDTA, pH 7.4, with protease inhibitor cocktail), centrifuged again at 29,000 × g for 15 min. The crude membrane was resuspended using buffer HE, and protein concentration was measured by the method of Lowery with BSA as standard. Similar procedures were used for membrane preparation for fresh rat tissues. All experimental procedures were done at 4° C. Membranes were aliquot and kept at −80° C.
The binding assays utilized 15 ug of A2A membrane (human recombinant A2A membrane, rat striatal membrane, or PC 12 cell membrane) that had been treated with adenosine deaminase and 50 mM Tris-EDTA buffer (pH=7.4) followed by mixing 2 μL of serially diluted DMSO stock solution of the compounds of this invention at concentrations ranging from 10 μM to 0.1 nM or the control received 2 μL of DMSO alone, then the tritiated antagonist 3-(3-hydroxypropyl)-7-methyl-8-(m-methoxystyryl)-1-propargylxanthine (^3H-MSX-2) in Tris-EDTA buffer (50 mM Tris, 1 mM EDTA, 10 mM MgCl2, pH of 7.4) was added to achieve a final concentration of 2 nM. After incubation at 23° C. for 2 hours, the solutions were filtered using a membrane harvester with multiple washing of the membranes (3×). The filter plates were counted in scintillation cocktail affording the amount of displacement ^3H-MSX-2 by the competitive binding compositions of this invention. Radioligand binding data was analyzed using GraphPad Prism version 4.0 (San Diego, Calif.). […]
In general terms: Loss of bound radioactivity is the signal in a displacement assay; it reports binding, not function.
Turning to `Cc1c(-c2ccco2)sc2[nH]c(=O)n(CC(C)C)c(=O)c12` [Example I, 6-(2-furyl)-5-methyl-3-(2-methylpropyl)-1,3-dihydrothiopheno[2,3-d]pyrimidine-2,4-dione], the Ki (usually the dissociation constant of the complex between target and ligand, obtained from inhibition or displacement) came to 76 nM. This counts as double-digit nanomolar.

`CCn1c(=O)[nH]c2sc(-c3ccoc3)c(C)c2c1=O` [II, 3-ethyl-6-(3-furyl)-5-methyl-1,3-dihydrothiopheno[2,3-d]pyrimidine-2,4-dione] came in with a Ki of 88 nM.

For `CCn1c(=O)[nH]c2sc(-c3cccs3)c(C)c2c1=O` [III, 3-ethyl-5-methyl-6-(2-thienyl)-1,3-dihydrothiopheno[2,3-d]pyrimidine-2,4-dione], the affinity, expressed as Ki, was 97 nM.

The compound `CCn1c(=O)[nH]c2sc(-c3ccco3)c(C)c2c1=O` [IV, 3-ethyl-6-(2-furyl)-5-methyl-1,3-dihydrothiopheno[2,3-d]pyrimidine-2,4-dione] came in with a Ki of 105 nM.

`C#CCn1c(=O)[nH]c2scc(C)c2c1=O` [IX, 5-methyl-3-prop-2-ynyl-1,3-dihydrothiopheno[2,3-d]pyrimidine-2,4-dione] yielded a Ki of 365 nM.

In the case of `CCn1c(=O)c2c(C)c(-c3ccccn3)sc2n(C)c1=O` [L, 3-ethyl-1,5-dimethyl-6-(2-pyridyl)-1,3-dihydrothiopheno[2,3-d]pyrimidine-2,4-dione], the inhibition constant (Ki) was 485 nM.

`Cc1c(C2=N[C@@H](C)CO2)sc2[nH]c(=O)n(CC(C)C)c(=O)c12` [LI, 6-((4S)-4-methyl(1,3-oxazolin-2-yl))-5-methyl-3-(2-methylpropyl)-1,3-dihydrothiopheno[2,3-d]pyrimidine-2,4-dione] came in with a Ki of 48 nM.

Consider `C#CCn1c(=O)c2c(C)csc2n(C)c1=O` [LII, 1,5-dimethyl-3-prop-2-ynyl-1,3-dihydrothiopheno[2,3-d]pyrimidine-2,4-dione], for which the Ki amounted to 720 nM.

Turning to `Cc1c(C2=N[C@@H](C)CO2)sc2c1c(=O)n(CC(C)C)c(=O)n2C` [LIII, 6-((4S)-4-methyl(1,3-oxazolin-2-yl))-1,5-dimethyl-3-(2-methylpropyl)-1,3-dihydrothiopheno[2,3-d]pyrimidine-2,4-dione], the Ki is 304 nM.

As to `CCn1c(=O)[nH]c2sc(-c3ccc(OC)nc3)c(C)c2c1=O` [LIV, 3-ethyl-6-(6-methoxy(3-pyridyl))-5-methyl-1,3-dihydrothiopheno[2,3-d]pyrimidine-2,4-dione], the Ki came out at 406 nM. This Ki and that of the compound before are within 1.5-fold of each other.

`Cc1c(C2=NC[C@@H](C)O2)sc2c1c(=O)n(CC(C)C)c(=O)n2C` [LIX, 6-((5R)-5-methyl(1,3-oxazolin-2-yl))-1,5-dimethyl-3-(2-methylpropyl)-1,3-dihydrothiopheno[2,3-d]pyrimidine-2,4-dione] registered a Ki of 450 nM.

On to `CCn1c(=O)[nH]c2sc(-c3cccnc3OC)c(C)c2c1=O` [LV, 3-ethyl-6-(2-methoxy(3-pyridyl))-5-methyl-1,3-dihydrothiopheno[2,3-d]pyrimidine-2,4-dione], for which affinity was put at a Ki of 529 nM.

Compound `CC[C@H]1COC(c2sc3[nH]c(=O)n(CC(C)C)c(=O)c3c2C)=N1` [LVI, 6-((4S)-4-ethyl(1,3-oxazolin-2-yl))-5-methyl-3-(2-methylpropyl)-1,3-dihydrothiopheno[2,3-d]pyrimidine-2,4-dione] yielded a Ki of 58 nM.

For the compound `Cc1c(C2=NC[C@@H](C)O2)sc2[nH]c(=O)n(CC(C)C)c(=O)c12` [LVII, 6-((5R)-5-methyl(1,3-oxazolin-2-yl))-5-methyl-3-(2-methylpropyl)-1,3-dihydrothiopheno[2,3-d]pyrimidine-2,4-dione], the Ki turned out to be 239 nM.

In turn, `CC[C@H]1COC(c2sc3c(c2C)c(=O)n(CC(C)C)c(=O)n3C)=N1` [LVIII, 6-((4S)-4-ethyl(1,3-oxazolin-2-yl))-1,5-dimethyl-3-(2-methylpropyl)-1,3-dihydrothiopheno[2,3-d]pyrimidine-2,4-dione] yielded a Ki of 119 nM.

As to `CCn1c(=O)[nH]c2sc(-c3ncco3)c(C)c2c1=O` [V, 3-ethyl-5-methyl-6-(1,3-oxazol-2-yl)-1,3-dihydrothiopheno[2,3-d]pyrimidine-2,4-dione], affinity was put at a Ki of 134 nM.

`CCn1c(=O)[nH]c2scc(-c3ccco3)c2c1=O` [VI, 3-ethyl-5-(2-furyl)-1,3-dihydrothiopheno[2,3-d]pyrimidine-2,4-dione] yielded a Ki of 137 nM.

Compound `CCn1c(=O)[nH]c2sc(C3=NCCO3)c(C)c2c1=O` [VII, 3-ethyl-5-methyl-6-(1,3-oxazolin-2-yl)-1,3-dihydrothiopheno[2,3-d]pyrimidine-2,4-dione] came in with a Ki of 152 nM.

As for `CNC(=O)c1sc2[nH]c(=O)n(C)c(=O)c2c1C` [VIII, (3,5-dimethyl-2,4-dioxo(1,3-dihydrothiopheno[2,3-d]pyrimidin-6-yl))-n-methylcarboxamide], affinity was put at a Ki of 274 nM.

For the compound `CCn1c(=O)[nH]c2scc(C)c2c1=O` [X, 3-ethyl-5-methyl-1,3-dihydrothiopheno[2,3-d]pyrimidine-2,4-dione], the affinity corresponds to a Ki of 397 nM.

The compound `CCn1c(=O)[nH]c2sc3c(c2c1=O)CCCC3` [XI, 3-ethyl-1,3,5,6,7,8-hexahydrobenzo[b]thiopheno[2,3-d]pyrimidine-2,4-dione] yielded an inhibitory constant (Ki) of 458 nM.

`CCn1c(=O)[nH]c2sc(-c3ccsc3)c(C)c2c1=O` [XII, 3-ethyl-5-methyl-6-(3-thienyl)-1,3-dihydrothiopheno[2,3-d]pyrimidine-2,4-dione] showed a Ki of 559 nM.

In turn, `Cc1csc2[nH]c(=O)n(C)c(=O)c12` [XIII, 3,5-dimethyl-1,3-dihydrothiopheno[2,3-d]pyrimidine-2,4-dione] displayed a Ki of 648 nM.

Consider `Cc1csc2[nH]c(=O)n(CC(C)C)c(=O)c12` [XIX, 5-methyl-3-(2-methylpropyl)-1,3-dihydrothiopheno[2,3-d]pyrimidine-2,4-dione], for which the affinity, expressed as Ki, was 780 nM.

`Cc1c(-c2ncco2)sc2c1c(=O)n(CC(C)C)c(=O)n2C` [XL, 1,5-dimethyl-3-(2-methylpropyl)-6-(1,3-oxazol-2-yl)-1,3-dihydrothiopheno[2,3-d]pyrimidine-2,4-dione]: the Ki is 347 nM.

Regarding `CCCn1c(=O)[nH]c2sc(C(=O)O)c(C)c2c1=O` [XLI, 5-methyl-2,4-dioxo-3-propyl-1,3-dihydrothiopheno[2,3-d]pyrimidine-6-carboxylic acid], the affinity corresponds to a Ki of 569 nM.

With `CCn1c(=O)[nH]c2sc(C(=O)N[C@H](C)CO)c(C)c2c1=O` [XLII, N—((1R)-2-hydroxy-isopropyl)(3-ethyl-5-methyl-2,4-dioxo(1,3-dihydrothiopheno[2,3-d]pyrimidin-6-yl))carboxamide], the Ki turned out to be 769 nM. The Ki values of the last two compounds are within 1.5-fold of each other.

For the compound `CCn1c(=O)[nH]c2sc(C3=N[C@@H](C)CO3)c(C)c2c1=O` [XLIII, 6-((4S)-4-methyl(1,3-oxazolin-2-yl))-3-ethyl-5-methyl-1,3-dihydrothiopheno[2,3-d]pyrimidine-2,4-dione], the inhibitory constant (Ki) turned out to be 93 nM.

Compound `CCn1c(=O)n(CC(C)C)c(=O)c2c(C)c(-c3ccco3)sc21` [XLIV, 1-ethyl-6-(2-furyl)-5-methyl-3-(2-methylpropyl)-1,3-dihydrothiopheno[2,3-d]pyrimidine-2,4-dione] yielded a Ki of 457 nM.

On to `CCn1c(=O)c2c(C)c(-c3ccc[nH]3)sc2n(C)c1=O` [XLIX, 3-ethyl-1,5-dimethyl-6-pyrrol-2-yl-1,3-dihydrothiopheno[2,3-d]pyrimidine-2,4-dione], for which the Ki is 488 nM.
